Laboratory results: article PMC6175634 (Molecular genetics and metabolism, 2018)

Biological target: T1, sulfamidase (wild-type mouse DBS) (Mus musculus, UniProt Q9EQ08)
T1 sequence (Q9EQ08 23-502): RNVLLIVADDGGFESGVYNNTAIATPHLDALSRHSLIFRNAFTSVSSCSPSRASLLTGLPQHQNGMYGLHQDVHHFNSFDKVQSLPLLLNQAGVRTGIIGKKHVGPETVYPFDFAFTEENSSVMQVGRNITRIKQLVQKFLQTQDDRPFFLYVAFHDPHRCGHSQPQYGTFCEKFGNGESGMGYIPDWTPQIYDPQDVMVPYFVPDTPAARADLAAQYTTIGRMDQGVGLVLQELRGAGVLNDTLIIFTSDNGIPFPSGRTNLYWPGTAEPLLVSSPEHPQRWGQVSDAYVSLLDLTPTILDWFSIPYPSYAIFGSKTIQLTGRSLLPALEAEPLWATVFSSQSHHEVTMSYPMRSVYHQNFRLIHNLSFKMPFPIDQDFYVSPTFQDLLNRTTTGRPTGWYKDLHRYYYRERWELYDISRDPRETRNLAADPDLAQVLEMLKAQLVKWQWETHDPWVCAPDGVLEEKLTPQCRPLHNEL
Assay: LC-MS/MS product formation in dried blood spot, knockout mouse control
Type: biochemical
Details: 1 mM substrate, otherwise same

Structure (SMILES): O=S(=O)(O)N[C@H]1[C@@H](Oc2ccc3ccccc3c2)O[C@H](CO)[C@@H](O)[C@@H]1O [MPS-IIIA-S, 2-sulfamate-2-deoxy-1-α-(2-naphthyl)-glucopyranoside]
- LC-MS/MS product formation in dried blood spot, knockout mouse control: sulfamidase activity was readily detected in a DBS made using blood from a wild-type mouse
